In patent US9157908B2, “Chitosan-alginate scaffold cell culture system and related methods” (University of Washington through its Center for …, priority 2011, dated 2015):
Read-outs that look alike come from different tables or passages of the source.

Key:
[1] = cited from earlier work
PLC/PRF/5 (PLC) cells = test: Cellular response to doxorubicin, cell viability by Alamar Blue assay; format: cell-based, human; conditions: 72 hours post treatment
Method: (§1) Proliferation of cells cultured on 2D wells, Matrigel matrix, and CA scaffolds was determined using the Alamar Blue assay following the manufacturer's protocol. Briefly, cells cultured on 2D wells and 3D scaffolds were washed with D-PBS before adding 1 mL of Alamar Blue solution (10% Alamar Blue in fully supplemented phenol red free DMEM or MEM) to each well.
(§2) For human hepatocellular carcinoma cells, after 2 hrs the Alamar Blue solution was transferred to a 96-well plate to obtain fluorescent values on a SpectraMax M2 microplate reader (Molecular Devices, Sunnyvale, Calif.) at 550 nm excitation, 590 nm emission. Standard curves were generated by seeding cells counted using a hemocytometer onto cell culture materials in triplicate, and performing Alamar Blue assay to generate a plot of linear regression of fluorescent values vs. cell number for each material. The cell number in an experimental sample was calculated based on the standard curve. No background fluorescence was generated by CA scaffolds. Cells were again washed with D-PBS to remove Alamar Blue solution and fresh fully-supplemented media were added to each well.
(§3) For human hepatocellular carcinoma cell-containing scaffolds, after 10 days of culture, media from cell cultures were replaced with 1 mL fully supplemented cell culture media containing various concentrations of doxorubicin. Cells were induced with doxorubicin containing media for 24 h, after which media was replaced with standard fully supplemented cell culture media. Cell viability was assessed using the Alamar Blue assay following the manufacturer's protocol as described above. LD50 was estimated via a polynomial approximation.

HepG2 cells = test: as above; format: cell-based, human; conditions: for LD50 for doxorubicin: 72 hours post treatment; for viability at 1 µM: Homo sapiens, read-out: viability relative to untreated cells
Method: as §1, §2, §3

In the case of `COc1cccc2c1C(=O)c1c(O)c3c(c(O)c1C2=O)C[C@@](O)(C(=O)CO)C[C@@H]3O[C@H]1C[C@H](N)[C@H](O)[C@H](C)O1` [doxorubicin], the clearance from plasma ([1]; 48 hours post treatment) is given as “nearly complete clearance”, the peak plasma concentration ([1]; standard dosing schemes, minutes after treatment) is given as “approximately 15 μM” and the LD50 of doxorubicin (PLC/PRF/5 (PLC) cells; PLC cells CA cultured) is given as 4 ± 1.4 µM. For the same compound, the LD50 of doxorubicin (PLC/PRF/5 (PLC) cells; PLC cells Matrigel cultured) was 3 ± 1.1 µM, the LD50 of doxorubicin (PLC/PRF/5 (PLC) cells; PLC cells cultured on 2D surfaces) was 0.2 ± 0.13 µM and the LD50 for doxorubicin (HepG2 cells; HepG2 cells cultured in 2D substrate) was 0.45 ± 0.18 µM. The LD50 for doxorubicin (HepG2 cells; HepG2 cells in CA) was 13 ± 1.7 µM, the LD50 for doxorubicin (HepG2 cells; HepG2 cells in Matrigel) was 7 ± 2.2 µM and the viability at 1 µM (HepG2 cells; HepG2, 48 h) was 86.7 ± 2.4%. It also gave a viability at 1 µM (HepG2 cells; HepG2, 72 h) of 88.6 ± 2.75%.
